Values quoted from earlier work, collected in patent US20160271121A1, “ANTIFUNGAL COMBINATION THERAPY” (Gavis Pharmaceuticals, priority 2015, published 2016).

Columns and labels:
[1] = test system: onychomycosis; conditions: 48 weeks of topical efinaconazole
[2] = test system: reference strains; conditions: in vitro, versus other antifungals

## C=C1CCN([C@H](C)[C@](O)(Cn2cncn2)c2ccc(F)cc2F)CC1 [Efinaconazole, (2R,3R)-2-(2,4-difluorophenyl)-3-(4-methylenepiperidin-1-yl)-1-(1H-1,2,4-triazol-1-yl)butan-2-ol]
[1]
  mycological cure rate compared with other antifungal agents: more than that for 48 weeks of topical ciclopirox and comparable to 12 weeks of oral itraconazole
[2]
  potency in broth dilution tests: more potent than terbinafine, ciclopirox, itraconazole, and amorolfine
